What all share (assay type): cell-based, human
Series [1] concerns Hsp70, Hsp90 and Hsp90 client proteins in Jurkat cells. Nature of the series: Western blot of Hsp70 and Hsp90 client proteins, Jurkat. The note with it: 24 h. As to the method:
Treated cells were harvested and disrupted by freeze−thawing in RIPA buffer (50 mM Hepes, 10 mM EDTA, 150 mM NaCl, 1% NP-40, 0.5% sodium deoxycholate, 0.1% SDS, pH 7.4), supplemented with protease inhibitors cocktail (Sigma-Aldrich). Cell debris was removed by centrifugation at 4°C and the supernatant protein concentration was determined, according to the Bio-Rad Protein assay (Biorad Laboratories, CA, USA). Total proteins (30 µg) were separated by SDS-PAGE under denatured reducing conditions. Separated proteins were then transferred to nitrocellulose membranes and blocked for 3 h with a solution containing 3% BSA in 50 mM Tris, 200 mM NaCl, 0.1% Tween 20, before incubation at 4°C overnight with the different primary antibodies (diluted 1∶1000) against specific proteins. After washing, the membranes were incubated with an appropriate peroxidase-conjugate secondary antibodies at room temperature (1 h). Immunoreactive protein bands were detected by enhanced chemiluminescence reagent (ECL, Rockford, USA), according to the manufacturer’s instructions. Quantitative densitometry analyses were performed using a Gel Doc 2000 system (Biorad Laboratories, CA, USA).
Figure 7 Effect of geraniin on Hsp90 client protein levels. Equal amounts (30 µg) of whole-cell lysates were separated on SDS-PAGE and client proteins were visualized by western blot analysis using specific antibodies. Actin was used as loading control. […] The blots shown are representative of three different experiments with similar results.

In series [2] the test system is HeLa cells. Nature of the series: MTT cell viability, HeLa. The settings on record: Homo sapiens, 24 h. How it is done: To ensure logarithmic growth, cells were subcultured every two days. As control cells, human peripheral blood mononuclear cells (PBMC) were isolated from buffy coats of healthy donors (kindly provided by the Blood Center of the Hospital of Battipaglia, Salerno, Italy) by using standard Ficoll−Hypaque gradients. […] Proliferation of PBMC was induced by phytohemagglutinin (PHA) (10 µg mL^−1). Tumor and PBMC cells were treated with different concentrations of geraniin or 17-AAG to evaluate their cytotoxic effects. Stock solutions of geraniin (50 mM in DMSO) and 17-AAG (10 mM in DMSO) were stored a −20°C in the dark and diluted just before addition to the sterile culture medium. In all the experiments, the final concentration of DMSO was 0.10% (v/v).
Jurkat (2×10^4/well) and HeLa (5000/well) cells were seeded in triplicate in 96 well−plates and incubated for 24 h in the absence or presence of different concentrations of geraniin (between 0,5 µM to 50 µM) or 17-AAG (between 0,5 nM to 10 µM).
The number of viable cells was determined by using a [3–4,5-dimethyldiazol-2-yl]-2,5-diphenyl tetrazolium bromide (MTT, Sigma-Aldrich) conversion assay, according to the method described by Mosmann. […] The absorbance was measured with a microplate reader (Titertek multiskan MCC7340, LabSystems, Vienna, VA, USA) equipped with a 620 nm filter. […]

Series [3] concerns PHA-stimulated proliferating PBMC. Briefly: Hypodiploidy/necrosis by flow cytometry, PHA-stimulated PBMC. The note with it: untreated cells 1.5±0.8%. How it is done:
Jurkat and HeLa (epithelial carcinoma) cells, obtained from Cell Bank in GMP-IST (Genova, Italy) were maintained in RPMI 1640 medium or Dulbecco’s modified Eagle medium (DMEM), respectively, supplemented with 10% (v/v) FBS, 2 mM L−glutamine and antibiotics (100 U mL^−1 penicillin, 100 µg mL^−1 streptomycin) purchased from Invitrogen (Carslbad, CA, USA), at 37°C in humidified atmosphere with 5% CO2. To ensure logarithmic growth, cells were subcultured every two days. As control cells, human peripheral blood mononuclear cells (PBMC) were isolated from buffy coats of healthy donors (kindly provided by the Blood Center of the Hospital of Battipaglia, Salerno, Italy) by using standard Ficoll−Hypaque gradients. Freshly isolated PBMC contained 92.8±3.1% live cells. Proliferation of PBMC was induced by phytohemagglutinin (PHA) (10 µg mL^−1). […]
Cell DNA content was measured by propidium iodide (PI) incorporation into permeabilized cells, as described by Nicoletti et al.. […] The percentage of cells in the sub G0/G1 phase, apoptotic fraction, was quantified using CellQuest software (Becton Dickinson). The distribution of cells in G0/G1, S, G2/M phases was determined using ModFit LT cell cycle analysis software (Becton Dickinson). Results were expressed as a mean ± SD of three experiments performed in triplicate.

Compound `O=C1O[C@H]2[C@@H]3OC(=O)c4cc(O)c(O)c(O)c4-c4c(cc(O)c(O)c4O)C(=O)OC[C@H]2O[C@@H](OC(=O)c2cc(O)c(O)c(O)c2)[C@@H]3OC(=O)c2cc(O)c(O)c3c2[C@@H]2C1=CC(=O)[C@](O)(O3)C2(O)O` [Compound 54, geraniin] gave a Hsp70 expression increase in series [1] (1 µM geraniin) of 3.5±0.12 fold. Further, the “level of Akt” value in series [1] is recorded as “unaffected”. In addition, the “level of the client proteins c-Raf, pAkt and EGFR” value in series [1] (IC50 and lower and higher concentrations) is “dose-dependent decrease”. Further, inhibition in series [2] was half-maximal at 5.1 ± 0.2 µM (IC50). The levels of hypodiploidy/necrosis in series [3] was 2.6±1.3%.

The record behind these values is article PMC3774728, “Identification of the Plant Compound Geraniin as a Novel Hsp90 Inhibitor” (PLoS ONE, 2013).
